This note sets out measurements from patent EP0170121A1, “2-Hydroxy-3-aryloxypropyl or 2-hydroxy-2-benzofuranyl ethyl tertiary amine having an anti-hyperglycaemic and/or anti-obesity activity” (BEECHAM GROUP PLC, priority 1984, dated 1986).

What all share (type): in vivo
Experiment [1] relates to Female CD1 mice. Nature of the experiment: Effect on energy expenditure of mice (oxygen consumption, oral dosing). The settings on record: p.o. in water, percentage of the rate of energy expenditure of the mice dosed with water, dose differs per compound (Dose mg/kg p.o.); for Mean Energy Expenditure (0-3h): 0-3h after dosing; for Mean Energy Expenditure (0-21h): 0-21h after dosing. The procedure: Female CD1 mice each weighing approximately 24 g were given food and water ad lib before and during the experiment. The compounds were dissolved in water and these solutions were administered orally to each of 12 mice. A further 12 mice were dosed orally with water. The mice were placed in groups of threes in boxes through which air was drawn and the oxygen content of the air leaving the boxes was measured. The energy expenditure of the mice was calculated for 3 and 21 hours after dosing from the volume of air leaving the boxes and its oxygen content, following the principles described by J.B. de V. Weir, J. Physiol. (London) 109, 1-9 (1949). The results are expressed as a percentage of the rate of energy expenditure of the mice dosed with water.

Experiment [2] has as its system Male Sprague-Dawley rats. The experiment can be described thus: Effect on energy expenditure of rats (oxygen consumption, oral dosing). The settings on record: deprived of food, p.o. in water, percentage of the rate of energy expenditure of the rats dosed with water, dose differs per compound (Dose mg/kg p.o.); for Mean Energy Expenditure (0-3h): 0-3h after dosing; for Mean Energy Expenditure (0-21h): 0-21h after dosing. The procedure: Male Sprague-Dawley rats each weighing between 170-200 g were deprived of food for 16 hours before, and during the experiment. Water was provided ad lib at all times. The compounds were administered orally in water to 3 or 4 rats. A further 4 rats were dosed orally with water. The rats were placed in boxes through which air was drawn and the oxygen content of the air leaving the boxes was measured. The energy expenditure of the rats was calculated for 3 hours and for 21 hours after dosing from the volume of air leaving the boxes and its oxygen content, following the principles described by J.B. de V. Weir, J. Physiol. (London) 109, 1-9 (1949). The results are expressed as a percentage of the rate of energy expenditure of the rats dosed with water.

Experiment [3] deals with Female CFLP mice. Nature of the experiment: Hypoglycaemic activity: subcutaneous glucose load, area under blood glucose curve. The settings on record: female CFLP mice fasted 24 hours; compound orally 30 minutes before glucose 1 g/kg s.c.; 2 hour period; versus control mice given water; dose differs per compound (Dose µmol/kg). The procedure:
Female CFLP mice, weighing approximately 25 g, were fasted for 24 hours prior to the study. The compounds under study were administered orally as an aqueous solution to each of 6 mice. 30 minutes later a blood sample (20 µl) was obtained from the tail for the analysis of blood glucose. Immediately after taking this blood sample, glucose (1 g/kg body weight) was administered subcutaneously to each mouse. 6 mice were given water as a control. Blood samples were then obtained from each mouse at 30 minute intervals for 120 minutes.
Compounds that produced a significant (p<0.05) reduction of blood glucose, compared with control mice given water, at any time interval, were considered active. The area under the blood glucose curve over the 2 hour period after the administration of the glucose was calculated for each compound and compared with the value for control animals.

Counter-ions that a name gives are not always drawn. Marks after values point to notes of the source that are not given here.

Turning to `COC(=O)c1ccc(C[C@@H](C)N(C[C@@H](O)COc2ccccc2)C[C@@H](O)COc2ccccc2)cc1` [Example 2, Methyl 4-[(R)-2-[bis-[(R)-2-hdroxy-3-penoxypropyl]amino]propyl]benzoate, fumarate], the entries for the “Mean Energy Expenditure (0-3h)” value in experiment [1] and in experiment [2] were 122 percentage and 114 percentage, respectively. The “Mean Energy Expenditure (0-21h)” value in experiment [1] turned out to be 97 percentage; in experiment [2] it was 100 percentage.

`CNC(=O)c1ccc(C[C@@H](C)N(C[C@H](O)COc2ccccc2)C[C@H](O)COc2ccccc2)cc1` [Example 3, N-Methyl 4-[(R)-2-[bis-[(S)-2-hydrpxy-3-phenoxypropyl]amino]propyl]benzamide, fumarate]: in experiment [3], the “% Reduction in Area under Blood Glucose Curve” value (“% Reduction in Area” for short) is 12%. Further, the “Mean Energy Expenditure (0-3h)” value in experiment [1] was 133 percentage; in experiment [2], 114 percentage. The “Mean Energy Expenditure (0-21h)” value is recorded as 109 percentage in experiment [1] and 100 percentage in experiment [2].

For `COC(=O)c1ccc(C[C@@H](C)N(C[C@@H](O)COc2ccccc2)C[C@H](O)c2ccccc2)cc1` [Example 5, Methyl 4-[(R)-2-[N-[(R)-2-hydroxy-2-phenethyl]-N-[(R)-2-hydroxy-3-phenoxypropyl]amino]propyl]benzoate hydrochloride], the “% Reduction in Area” value in experiment [3] is recorded as 38%. In experiment [1], the “Mean Energy Expenditure (0-3h)” value is reported as 136 percentage and the “Mean Energy Expenditure (0-21h)” value is recorded as 112 percentage.

`CNC(=O)c1ccc(C[C@@H](C)N(C[C@H](O)COc2ccccc2)C[C@H](O)c2ccccc2)cc1` [Example 6, N-Methyl 4-[(R)-2-[N'-[(R)-2-hydroxy-2-phenethyl]-N'-[(S)-2-hydroxy-3-phenoxypropyl]amino]propyl]benzamide]: the “% Reduction in Area” value in experiment [3] is 13%. In experiment [1], the “Mean Energy Expenditure (0-3h)” value came out at 126 percentage and the “Mean Energy Expenditure (0-21h)” value is reported as 110 percentage. Besides, in experiment [2], the “Mean Energy Expenditure (0-3h)” value came to 112 percentage and the “Mean Energy Expenditure (0-21h)” value was 108 percentage.

In the case of `CNC(=O)c1ccc(C[C@@H](C)N(C[C@@H](O)COc2ccccc2)C[C@H](O)c2ccccc2)cc1` [Example 7, N-Methyl 4-[(R)-2-[N'-[(R)-2-hydroxy-2-phenethyl]-N'-[(R)-2-hydroxy-3-phenoxypropyl]amino]propyl]benzamide], in experiment [3], the “% Reduction in Area” value is listed as 18%. Moreover, in experiment [1], the “Mean Energy Expenditure (0-3h)” value stood at 119 percentage and the “Mean Energy Expenditure (0-21h)” value is 102 percentage.

`COC(=O)c1ccc(C[C@@H](C)N(CC(O)c2cc(Cl)c(N)c(Cl)c2)C[C@H](O)COc2ccccc2)cc1` (stereo partly drawn) [Example 10, Methyl 4-[(R)-2-[N-[2-(4-amino-3,5-dichlorophenyl]-2-hydroxyethyl]-N-[(S)-2-hydroxy-3-phenoxypropyl]amino]propyl benzoate]: the “% Reduction in Area” value in experiment [3] is 31%. Further, in experiment [1], the “Mean Energy Expenditure (0-3h)” value was 121 percentage and the “Mean Energy Expenditure (0-21h)” value turned out to be 122 percentage.

Regarding `C[C@H](CCc1ccc(C(N)=O)cc1)N(C[C@H](O)COc1ccccc1)C[C@H](O)c1ccccc1` [Example 12, 4-[(R)-3-[N-(R)-2-Hydroxy-2-phenethyl-N-[(S)-2-hydroxy-3-phenoxypropyl]amino]butyl]benzamide], in experiment [3], the “% Reduction in Area” value turned out to be 28%. In addition, in experiment [1], the “Mean Energy Expenditure (0-3h)” value worked out at 111 percentage and the “Mean Energy Expenditure (0-21h)” value came out at 103 percentage. In addition, in experiment [2], the “Mean Energy Expenditure (0-3h)” value was 139 percentage and the “Mean Energy Expenditure (0-21h)” value was 113 percentage.

Turning to `C[C@H](Cc1ccc(OCC(N)=O)cc1)N(C[C@H](O)COc1ccccc1)C[C@H](O)c1cccc(Cl)c1` [Example 19, 4-[(R)-2-[N-[(R)-2-(3-Chlorophenyl)-2-hydroxyethyl]-N-[(S)-2-hydroxy-3-phenoxypropyl]amino]propyl]phenoxyacetamide, hydrochloride, hemihydrate], the “% Reduction in Area” value in experiment [3] is reported as 43%. Also, in experiment [2], the “Mean Energy Expenditure (0-3h)” value is 120 percentage and the “Mean Energy Expenditure (0-21h)” value came out at 106 percentage.

`CCOC(=O)COc1ccc(CC[C@@H](C)N(C[C@H](O)COc2ccccc2)C[C@H](O)c2ccccc2)cc1` [Example 21, Ethyl 4-[(R)-3-[N-[(R)-2-hydroxy-2-phenethyl]-N-[(S)-2-hydroxy-3-phenoxypropyl]amino]butyl]phenoxyacetate, hydrochloride]: in experiment [2], the “Mean Energy Expenditure (0-3h)” value amounted to 110 percentage and the “Mean Energy Expenditure (0-21h)” value is 107 percentage.

Regarding `C[C@H](Cc1ccc(OCCO)cc1)N(C[C@H](O)COc1ccccc1)C[C@H](O)c1ccccc1` [Example 22, 4-[(R)-2-[N-[(R)-2-Hydroxy-2-phenethyl]-N-[(S)-2-hydroxy 3-phenoxypropyl]amino]propyl]phenoxyethanol, hydrochloride, hemihydrate], in experiment [2], the “Mean Energy Expenditure (0-3h)” value is 120 percentage and the “Mean Energy Expenditure (0-21h)” value is recorded as 107 percentage.

In the case of `COC(=O)COc1ccc(C[C@@H](C)N(C[C@H](O)COc2ccccc2)C[C@H](O)c2ccccc2)cc1` [Example 24, Methyl 4-[(R)-2-(N-[(R)-2-hydroxy-2-phenethyl]-N-[(S)-2-hydroxy-3-phenoxypropyl]amino]propyl]phenoxyacetate, hydrochloride, hemihydrate], in experiment [2], the “Mean Energy Expenditure (0-3h)” value is 146 percentage and the “Mean Energy Expenditure (0-21h)” value came to 122 percentage.

For `C[C@H](COc1ccc(OCC(N)=O)cc1)N(C[C@H](O)COc1ccccc1)C[C@H](O)c1ccccc1` [Example 25, 4-[(R)-2-[N-[(R)-2-Hydroxy-2-phenethyl]-N-[(S)-2-hydroxy-3-phenoxypropyl]amino]propoxy]phenoxyacetamide, hydrochloride], in experiment [2], the “Mean Energy Expenditure (0-3h)” value is reported as 126 percentage and the “Mean Energy Expenditure (0-21h)” value worked out at 115 percentage.

On to `CCOC(=O)COc1ccc(C[C@@H](C)N(CC(O)c2cc3ccccc3o2)C[C@H](O)COc2ccccc2)cc1.Cl` (stereo partly drawn) [Example 26, Ethyl 4-[(R)-2-[N-[2-(2-benzofuranyl)-2-hydroxyethyl]-N-[(S)-2-hydroxy-3-phenoxypropyl]amino]propyl]phenoxyacetate, hydrochloride], for which the “% Reduction in Area” value in experiment [3] came to 34%. Besides, in experiment [2], the “Mean Energy Expenditure (0-3h)” value was found to be 142 percentage and the “Mean Energy Expenditure (0-21h)” value is 117 percentage.

With `CCOC(=O)COc1ccc(C[C@@H](C)N(CC(O)c2cc3ccccc3o2)C[C@H](O)c2ccccc2)cc1` (stereo partly drawn) [Example 27, Ethyl 4-[(R)-2-[N-[(R)-2-hydroxy-2-phenethyl]-N-[2-(2-benzofuranyl)-2-hydroxyethyl]amino]propyl]phenoxyacetate hydrochloride], in experiment [2], the “Mean Energy Expenditure (0-3h)” value is 134 percentage and the “Mean Energy Expenditure (0-21h)” value was 114 percentage.

For the compound `C[C@H](Cc1ccc(OCC(N)=O)cc1)N(C[C@@H](O)COc1ccccc1)C[C@H](O)c1ccc(O)cc1` [Example 28, 4-[(R)-2-[N-[(R)-2-Hydroxy-2-(4-hydroxyphenyl)ethyl]-N-[(R)-2-hydroxy-3-phenoxypropyl]amino]propyl]phenoxyacetamide], in experiment [2], the “Mean Energy Expenditure (0-3h)” value is recorded as 131 percentage and the “Mean Energy Expenditure (0-21h)” value is reported as 117* percentage.

Turning to `COC(=O)COc1ccc(CC(C)N(CC(O)COc2ccccc2)CC(O)c2cc(Cl)c(N)c(Cl)c2)cc1` (centres unmarked) [Example 29, Methyl 4-[2-[N-[2-(4-amino-3,5-dichlorophenyl)-2-bydroxy-ethyl]-N-[2-hydroxy-3-phenoxypropyl]amino]propyl]phenoxyacetate, hemifumarate], in experiment [2], the “Mean Energy Expenditure (0-3h)” value turned out to be 131 percentage and the “Mean Energy Expenditure (0-21h)” value is given as 122* percentage.

`CC(Cc1ccc(OCC(N)=O)cc1)N(CC(O)COc1ccccc1)CC(O)c1cc(Cl)c(N)c(Cl)c1` (centres unmarked) [Example 30, 4-[2-[N-[2-(4-Amino-3,5-dichlorophenyl)-2-hydroxyethyl]-N-[2-hydroxy-3-phenoxypropyl]amino]propyl]phenoxyacetamide]: in experiment [2], the “Mean Energy Expenditure (0-3h)” value is on record as 129 percentage and the “Mean Energy Expenditure (0-21h)” value was 116* percentage.
